This is an account of results in patent publication US8541434B2, “Ethynyl-substituted pyridine and pyrimidine derivatives and their use in treating viral infections” (Merck Sharp & Dohme Corp., priority 2008, dated 2013).

In the test the test system is HCV replicon cells. Description: Cell-based HCV replicon assay (replicon RNA level by real time PCR, Taqman). Conditions: Hepatitis C virus, 72 h, harvested on day 3, EC90 = concentration necessary to achieve ΔCT=3.2 over the baseline, read-out: EC90 Range. On the procedure:
Assays Cell-Based HCV Replicon Assay
To measure cell-based anti-HCV activity of the compounds of the present invention, replicon cells were seeded at 5000 cells/well in 96-well collagen I-coated Nunc plates in the presence of the compound of the invention. […] The final concentration of DMSO was 0.5%, fetal bovine serum was 10%, in the assay media. Cells were harvested on day 3 by the addition of 1× cell lysis buffer (Ambion cat #8721). The replicon RNA level was measured using real time PCR (Taqman assay). The amplicon was located in 5B. […] GAPDH RNA was used as endogenous control and was amplified in the same reaction as NS5B (multiplex PCR) using primers and VIC-labeled probe recommended by the manufacturer (PE Applied Biosystem). The real-time RT-PCR reactions were run on ABI PRISM 7900HT Sequence Detection System using the following program: 48° C. for 30 min, 95° C. for 10 min, 40 cycles of 95° C. for 15 sec, 60° C. for 1 min. The ACT values (CT5B-CTGAPDH) were plotted against the concentration of test compound and fitted to the sigmoid dose-response model using GraphPad PRISM software. EC50 was defined as the concentration of inhibitor necessary to achieve ΔCT=1 over the projected baseline; EC90 the concentration necessary to achieve ΔCT=3.2 over the baseline. Alternatively, to quantitate the absolute amount of replicon RNA, a standard curve was established by including serially diluted T7 transcripts of replicon RNA in the Taqman assay. All Taqman reagents were from PE Applied Biosystems. Such an assay procedure was described in detail in e.g. Malcolm et al., Antimicrobial Agents and Chemotherapy 50: 1013-1020 (2006).
`CNc1nc(Cl)c(C#Cc2ccc(OC)nc2C)c(N[C@@H]2C[C@H](CO)[C@@H](O)[C@H]2O)n1` [Compound 65]: the EC90 is no more than 500 nM.

On to `CNc1nc(Cl)c(C#Cc2ccc(SC)nc2C)c(N[C@@H]2C[C@H](CO)[C@@H](O)[C@H]2O)n1` [Compound 66], for which the EC90 is no more than 500 nM.

`COCCNc1nc(Cl)c(C#Cc2ccc(OC)nc2C)c(N[C@@H]2C[C@H](CO)[C@@H](O)[C@H]2O)n1` [Compound 67]: the EC90 was no more than 500 nM.

`COc1ccc(C#Cc2c(Cl)nc(NCC(F)(F)F)nc2N[C@@H]2C[C@H](CO)[C@@H](O)[C@H]2O)c(C)n1` [Compound 68]: the EC90 is no more than 500 nM.

As to `COCCNc1nc(Cl)c(C#Cc2ccc(OCC(F)(F)F)nc2C)c(N[C@@H]2C[C@H](CO)[C@@H](O)[C@H]2O)n1` [Compound 69], the EC90 lay in the range of 500 to 5000 nM.

`Cc1nc(OCC(F)(F)F)ccc1C#Cc1c(Cl)nc(NCC(F)(F)F)nc1N[C@@H]1C[C@H](CO)[C@@H](O)[C@H]1O` [Compound 70]: the EC90 lay in the range of 500 to 5000 nM.

With `CCOc1ccc(C#Cc2c(Cl)nc(NCCOC)nc2N[C@@H]2C[C@H](CO)[C@@H](O)[C@H]2O)c(C)n1` [Compound 71], the EC90 was no more than 500 nM.

As for `CCOc1ccc(C#Cc2c(Cl)nc(NCC(F)(F)F)nc2N[C@@H]2C[C@H](CO)[C@@H](O)[C@H]2O)c(C)n1` [Compound 72], the EC90 is no more than 500 nM.

As to `CCOc1ccc(C#Cc2c(Cl)nc(NCCOC)nc2N[C@@H]2C[C@H](CO)[C@@H](O)[C@H]2O)cn1` [Compound 73], the EC90 is no more than 500 nM.

Consider `CCOc1ccc(C#Cc2c(Cl)nc(NCC(F)(F)F)nc2N[C@@H]2C[C@H](CO)[C@@H](O)[C@H]2O)cn1` [Compound 74], for which the EC90 was no more than 500 nM.

In the case of `COCCNc1nc(Cl)c(C#Cc2ccc(OC)nc2)c(N[C@@H]2C[C@H](CO)[C@@H](O)[C@H]2O)n1` [Compound 75], the EC90 was no more than 500 nM.

For the compound `COc1ccc(C#Cc2c(Cl)nc(NCC(F)(F)F)nc2N[C@@H]2C[C@H](CO)[C@@H](O)[C@H]2O)cn1` [Compound 76], the EC90 is no more than 500 nM.

With `COCCNc1nc(C)c(C#Cc2ccc(OC)nc2)c(N[C@@H]2C[C@H](CO)[C@@H](O)[C@H]2O)n1` [Compound 77], the EC90 was no more than 500 nM.

Turning to `COc1ccc(C#Cc2c(C)nc(NCCCO)nc2N[C@@H]2C[C@H](CO)[C@@H](O)[C@H]2O)cn1` [Compound 78], the EC90 is no more than 500 nM.

As to `CCCc1ccc(C#Cc2c(Cl)nc(N)nc2N[C@@H]2C[C@H](CO)[C@@H](O)[C@H]2O)cn1` [Compound 79], the EC90 was no more than 500 nM.

In the case of `Cc1nc(N)nc(N[C@@H]2C[C@H](CO)[C@@H](O)[C@H]2O)c1C#Cc1nccs1` [Compound 80], the 90% effect concentration (EC90) was 500 to 5000 nM.

For `CCOc1ccc(C#Cc2c(C)nc(NCCOC)nc2N[C@@H]2C[C@H](CO)[C@@H](O)[C@H]2O)cn1` [Compound 81], the EC90 is no more than 500 nM.

`COCCNc1nc(C)c(C#Cc2ccc(OC)nc2C)c(N[C@@H]2C[C@H](CO)[C@@H](O)[C@H]2O)n1` [Compound 82]: the EC90 was no more than 500 nM.

On to `COc1ccc(C#Cc2c(C)nc(NCCCO)nc2N[C@@H]2C[C@H](CO)[C@H]3OC(C)(C)O[C@H]32)cn1` [Compound 83], for which the EC90 fell in the range of 500 to 5000 nM.

For `COc1ccc(C#Cc2c(C)nc(NCCSC)nc2N[C@@H]2C[C@H](CO)[C@@H](O)[C@H]2O)cn1` [Compound 84], the EC90 is no more than 500 nM.

Turning to `CCOc1ccc(C#Cc2c(C)nc(NCC(C)(C)C)nc2N[C@@H]2C[C@H](CO)[C@@H](O)[C@H]2O)cn1` [Compound 85], the concentration for an effect of 90% (EC90) was no more than 500 nM.

As to `CCOc1ccc(C#Cc2c(C)nc(NCC(F)(F)F)nc2N[C@@H]2C[C@H](CO)[C@@H](O)[C@H]2O)cn1` [Compound 86], the EC90 was no more than 500 nM.

In the case of `CCCNc1nc(C)c(C#Cc2ccc(OCC)nc2)c(N[C@@H]2C[C@H](CO)[C@@H](O)[C@H]2O)n1` [Compound 87], the EC90 was no more than 500 nM.

In the case of `CCNc1nc(C)c(C#Cc2ccc(OCC)nc2)c(N[C@@H]2C[C@H](CO)[C@@H](O)[C@H]2O)n1` [Compound 88], the EC90 was no more than 500 nM.

In the case of `CCOc1ccc(C#Cc2c(C)nc(NCCF)nc2N[C@@H]2C[C@H](CO)[C@@H](O)[C@H]2O)cn1` [Compound 89], the EC90 lay in the range of 500 to 5000 nM.

Turning to `COc1ccc(C#Cc2c(C)nc(NCC(F)(F)F)nc2N[C@@H]2C[C@H](CO)[C@@H](O)[C@H]2O)cn1` [Compound 90], the EC90 was 500 to 5000 nM.

As for `CCNc1nc(C)c(C#Cc2ccc(OC)nc2)c(N[C@@H]2C[C@H](CO)[C@@H](O)[C@H]2O)n1` [Compound 91], the EC90 was no more than 500 nM.

As for `COc1ccc(C#Cc2c(C)nc(NCC3CC3)nc2N[C@@H]2C[C@H](CO)[C@@H](O)[C@H]2O)cn1` [Compound 92], the EC90 is no more than 500 nM.

With `COc1ccc(C#Cc2c(C)nc(NCc3c(OC)cccc3OC)nc2N[C@@H]2C[C@H](CO)[C@@H](O)[C@H]2O)cn1` [Compound 93], the EC90 was no more than 500 nM.

On to `COCCNc1nc(C)c(C#Cc2ccc(OC)nc2OC)c(N[C@@H]2C[C@H](CO)[C@@H](O)[C@H]2O)n1` [Compound 94], for which the EC90 was no more than 500 nM.

Regarding `COc1ccc(C#Cc2c(C)nc(NCC3CC3)nc2N[C@@H]2C[C@H](CO)[C@@H](O)[C@H]2O)c(OC)n1` [Compound 95], the EC90 was no more than 500 nM.

Take `CSCCNc1nc(C)c(C#Cc2ccc(-c3ccccn3)s2)c(N[C@@H]2C[C@H](CO)[C@@H](O)[C@H]2O)n1` [Compound 96]: the EC90 is no more than 500 nM.

Regarding `OC[C@H]1C[C@@H](Nc2nc(NCC(F)(F)F)nc(Cl)c2C#Cc2ccc(-c3ccccn3)s2)[C@H](O)[C@@H]1O` [Compound 97], the EC90 was no more than 500 nM.

Turning to `Cc1nc(NCCCO)nc(N[C@@H]2C[C@H](CO)[C@H]3OC(C)(C)O[C@H]32)c1C#Cc1cccs1` [Compound 100], the EC90 fell in the range of 500 to 5000 nM.

Turning to `Cc1nc(-c2ccccc2)c(C#Cc2c(Cl)nc(NCC(F)(F)F)nc2N[C@@H]2C[C@H](CO)[C@@H](O)[C@H]2O)s1` [Compound 101], the EC90 lay within 500 to 5000 nM.

For `Cc1nc(NCc2ccccn2)nc(N[C@@H]2C[C@H](CO)[C@@H](O)[C@H]2O)c1C#Cc1ccsc1` [Compound 102], the EC90 was no more than 500 nM.

`CCOCCNc1nc(C)c(C#Cc2ccsc2)c(N[C@@H]2C[C@H](CO)[C@@H](O)[C@H]2O)n1` [Compound 103]: the EC90 is no more than 500 nM.

As to `Cc1nc(NCC2CC2)nc(N[C@@H]2C[C@H](CO)[C@@H](O)[C@H]2O)c1C#Cc1ccc(-c2ccccn2)s1` [Compound 104], the EC90 fell in the range of 500 to 5000 nM.

In the case of `COCCNc1nc(C)c(C#Cc2ccc(-c3ccccn3)s2)c(N[C@@H]2C[C@H](CO)[C@@H](O)[C@H]2O)n1` [Compound 105], the EC90 lay within 500 to 5000 nM.
